Each structure is given as a SMILES string.

For this test, the target named is T1, human NEP (Homo sapiens, UniProt P08473).
T1 construct: purchased R&D Systems, Minneapolis, Minn; 1182-ZN
T1 sequence (P08473 whole entry): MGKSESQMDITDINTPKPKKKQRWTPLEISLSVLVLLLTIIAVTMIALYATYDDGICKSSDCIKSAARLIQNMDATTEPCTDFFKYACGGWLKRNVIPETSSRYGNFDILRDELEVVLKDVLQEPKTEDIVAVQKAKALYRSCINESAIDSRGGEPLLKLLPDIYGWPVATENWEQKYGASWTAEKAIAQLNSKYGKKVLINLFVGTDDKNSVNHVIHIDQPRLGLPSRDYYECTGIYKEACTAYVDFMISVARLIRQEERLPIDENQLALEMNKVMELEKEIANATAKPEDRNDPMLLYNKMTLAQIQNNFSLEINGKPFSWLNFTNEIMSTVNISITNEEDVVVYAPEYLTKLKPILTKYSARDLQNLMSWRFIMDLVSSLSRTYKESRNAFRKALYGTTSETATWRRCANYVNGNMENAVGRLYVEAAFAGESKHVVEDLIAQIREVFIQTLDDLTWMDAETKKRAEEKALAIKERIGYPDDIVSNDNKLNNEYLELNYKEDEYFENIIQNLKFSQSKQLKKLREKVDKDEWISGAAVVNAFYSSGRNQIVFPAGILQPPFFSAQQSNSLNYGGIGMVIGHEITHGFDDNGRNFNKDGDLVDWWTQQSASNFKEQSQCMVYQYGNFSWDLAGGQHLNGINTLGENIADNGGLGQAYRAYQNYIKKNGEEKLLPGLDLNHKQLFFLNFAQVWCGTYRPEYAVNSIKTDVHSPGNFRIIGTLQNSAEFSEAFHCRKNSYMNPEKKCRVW
The test can be described thus: In vitro enzyme inhibition assay at human NEP (fluorogenic peptide substrate). It is filed as biochemical. The note with it: recombinant human NEP; substrate Mca-D-Arg-Arg-Leu-Dap-(Dnp)-OH 10 μM; 37° C.; values given as ranges; read-out: pKi values at human NEP (converted). The method, boiled down:
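Recombinant human NEP pre-incubated 30 min at 37 °C with compound (10 μM to 20 pM), then 10 μM Mca-D-Arg-Arg-Leu-Dap-(Dnp)-OH in 50 mM HEPES pH 7.5, 100 mM NaCl, 0.01% Tween-20, 10 μM ZnSO4. Stopped after 20 min with acetic acid, fluorescence read at 320/405 nm; Ki from nonlinear fit, reported as pKi.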
Take `CCOc1ncc(Cn2nc(C(=O)N[C@H](Cc3ccccc3)[C@@H](O)C(=O)O)cc2C2CC2)cn1` [Example 8-24, (2R,3R)-3-{[5-Cyclopropyl-1-(2-ethoxy-pyrimidin-5-ylmethyl)-1H-pyrazole-3-carbonyl]-amino}-2-hydroxy-4-phenyl-butyric acid]: the Ki was 0.0126 to 0.1 µM.
The figure for `O=C(N[C@H](Cc1ccccc1)[C@@H](O)C(=O)O)c1cnn(-c2ccccn2)c1` [Example 9-1, (2R,3R)-2-Hydroxy-4-phenyl-3-[(1-pyridin-2-yl-1H-pyrazole-4-carbonyl)-amino]-butyric acid] is 0.0126 to 0.1 µM.
With `O=C(O)C[C@@H](Cc1ccccc1Cl)NC(=O)c1cc(C(=O)O)n(Cc2cccc(Cl)c2)n1` [Example 10, 5-[(R)-2-Carboxy-1-(2-chlorobenzyl)-ethylcarbamoyl]-2-(3-chlorobenzyl)-2H-pyrazole-3-carboxylic Acid], the Ki was 0.00126 to 0.01 µM.
Under `COc1cccc(Cn2nc(C(=O)N[C@@H](CC(=O)O)Cc3ccccc3Cl)cc2C(=O)O)c1` [Example 11-1, 5-[(R)-2-Carboxy-1-(2-chloro-benzyl)-ethylcarbamoyl]-2-(3-methoxy-benzyl)-2H-pyrazole-3-carboxylic acid] stands 0.0126 to 0.1 µM; under `COc1ccc(Cn2nc(C(=O)N[C@@H](CC(=O)O)Cc3ccccc3Cl)cc2C(=O)O)cc1` [Example 11-2, 5-[(R)-2-Carboxy-1-(2-chloro-benzyl)-ethylcarbamoyl]-2-(4-methoxy-benzyl)-2H-pyrazole-3-carboxylic acid], 0.0126 to 0.1 µM; under `O=C(O)C[C@@H](Cc1ccccc1Cl)NC(=O)c1cc(C(=O)O)n(Cc2ccc(Cl)cc2)n1` [Example 11-3, 5-[(R)-2-Carboxy-1-(2-chloro-benzyl)-ethylcarbamoyl]-2-(4-chloro-benzyl)-2H-pyrazole-3-carboxylic acid], 0.0126 to 0.1 µM.
`O=C(O)C[C@@H](Cc1ccccc1Cl)NC(=O)c1cc(C(=O)O)n(Cc2ccccc2)n1` [Example 11-4, 2-Benzyl-5-[(R)-2-carboxy-1-(2-chloro-benzyl)-ethylcarbamoyl]-2H-pyrazole-3-carboxylic acid]: the Ki is 0.0126 to 0.1 µM.
The figure for `Cc1ccc(Cn2nc(C(=O)N[C@@H](CC(=O)O)Cc3ccccc3Cl)cc2C(=O)O)cc1` [Example 11-5, 5-[(R)-2-Carboxy-1-(2-chloro-benzyl)-ethylcarbamoyl]-2-(4-methyl-benzyl)-2H-pyrazole-3-carboxylic acid] is 0.0126 to 0.1 µM; for `O=C(O)C[C@@H](Cc1ccccc1Cl)NC(=O)c1cc(C(=O)O)n(Cc2cccc(F)c2)n1` [Example 11-6, 5-[(R)-2-Carboxy-1-(2-chloro-benzyl)-ethylcarbamoyl]-2-(3-fluoro-benzyl)-2H-pyrazole-3-carboxylic acid] it is 0.0126 to 0.1 µM.
For the molecule `O=C(O)C[C@@H](Cc1ccccc1Cl)NC(=O)c1cc(C(=O)O)[nH]n1` [Example 11-7, 5-[(R)-1-Carboxymethyl-2-(2-chloro-phenyl)-ethylcarbamoyl]-2H-pyrazole-3-carboxylic acid], the Ki is 0.0126 to 0.1 µM.
Consider `CCCCCCn1nc(C(=O)N[C@@H](CC(=O)O)Cc2ccccc2Cl)cc1C(=O)O` [Example 11-8, 5-[(R)-2-Carboxy-1-(2-chloro-benzyl)-ethylcarbamoyl]-2-hexyl-2H-pyrazole-3-carboxylic acid], for which the Ki was 0.0126 to 0.1 µM.
With `O=C(O)C[C@@H](Cc1ccccc1Cl)NC(=O)c1cc(C(=O)O)n(CC(=O)O)n1` [Example 11-9, 5-[(R)-2-Carboxy-1-(2-chloro-benzyl)-ethylcarbamoyl]-2-carboxymethyl-2H-pyrazole-3-carboxylic acid], the Ki is 0.0126 to 0.1 µM.
Regarding `CC(Cn1nc(C(=O)N[C@@H](CC(=O)O)Cc2ccccc2Cl)cc1C(=O)O)C(=O)O` (stereo partly drawn) [Example 11-10, 5-[(R)-2-Carboxy-1-(2-chloro-benzyl)-ethylcarbamoyl]-2-(2-carboxy-propyl)-2H-pyrazole-3-carboxylic acid], the Ki was 0.0126 to 0.1 µM.
In the case of `O=C(O)C[C@@H](Cc1ccccc1Cl)NC(=O)c1cc(C(=O)O)n(Cc2ccncc2)n1` [Example 11-11, 5-[(R)-2-Carboxy-1-(2-chloro-benzyl)-ethylcarbamoyl]-2-pyridin-4-ylmethyl-2H-pyrazole-3-carboxylic acid], the Ki was 0.0126 to 0.1 µM.
Consider `O=C(O)C[C@@H](Cc1ccccc1C(F)(F)F)NC(=O)c1cc(C(=O)O)[nH]n1` [Example 12, 5-[(R)-2-Carboxy-1-(2-trifluoromethylbenzyl)-ethylcarbamoyl]-2H-pyrazole-3-carboxylic Acid], for which the Ki was 0.0126 to 0.1 µM.
The figure for `Cc1ccccc1C[C@H](CC(=O)O)NC(=O)c1cc(C(=O)O)[nH]n1` [Example 13, 5-((R)-1-Carboxymethyl-2-o-tolyl-ethylcarbamoyl)-2H-pyrazole-3-carboxylic Acid] is 0.0126 to 0.1 µM.

Source of the values: US8993752B2, “Neprilysin inhibitors” (Theravance Biopharma R&D IP, LLC, priority 2011, dated 2015).
